In paper PMC11932207, “Regulating AMPA Receptors with Isoxazole-4-Carboxamide Derivatives: An Electrophysiological Study” (Journal of Xenobiotics, 2025):
Like-named read-outs stand apart in the source and are kept apart here.

Experiments:
GluA2 = biological target: T1, GluA2 (Rattus norvegicus, UniProt P19491); experiment: Whole-cell patch clamp recordings of homomeric GluA2 AMPA receptor currents and kinetics in transfected HEK293t cells; assay type: cell-based; settings: for Amplitude (peak whole-cell current in presence of compound): 16 µM compound co-applied with agonist, HEK293t, −60 mV, pH 7.4, 22 °C; for Amplitude (peak whole-cell current in presence of compound) / A/AI (amplitude ratio, glutamate alone / with compound) / t deact (weighted deactivation time constant) / t des (weighted desensitization time constant) / Amplitude, applying glutamate alone after compound: mean ± SD; for Amplitude (peak whole-cell current in presence of compound) / A/AI (amplitude ratio, glutamate alone / with compound) / Amplitude, applying glutamate alone after compound: n = 10; for A/AI (amplitude ratio, glutamate alone / with compound): 16 µM compound; for t deact (weighted deactivation time constant): 10 mM glutamate for 1 ms; for t deact (weighted deactivation time constant) / t des (weighted desensitization time constant): with compound; for t des (weighted desensitization time constant): 10 mM glutamate for 500 ms; for Amplitude, applying glutamate alone after compound: glutamate alone after the compound; for Effect on deactivation kinetics (τdeac), in words / Effect on desensitization kinetics (τdes), in words: versus glutamate alone, one-way ANOVA
T1 construct: expressed in transfected cells; host or cells: HEK293T (HEK293) cells, transient co-transfection with a separate EGFP vector
Excerpt: (§1) The AMPA receptor subunits utilized in this study were of the flip isoform. The flip variant of the GluA2 subunit was originally provided by S. F. Heinemann (Salk Institute, La Jolla, CA, USA) in a pBlueScript plasmid. This plasmid was subsequently sub-cloned into a pRK vector to enable expression in HEK293 cells, which were sourced from Sigma, Germany. Additionally, the unedited version of GluA2 (R607Qjj, flip isoform) and enhanced green fluorescent protein (EGFP), both contained in pRK5 vectors, were generously supplied by P. H. Seeburg (Max Planck Institute for Medical Research, Heidelberg, Germany). Chemical-mediated ways induced transfection. GluA2 homomers were expressed into HEK293 cells by the co-transfection of 1 μg GluA2 plasmid with an equal amount of GFP expression vectors (1:1 ratio) into the cells. In addition, co-transfection was conducted for heteromeric GluA2/3 subunits at a ratio of 1:1.2 for optimum expression. For post-transfection experiments, cells were plated in 10% fetal calf serum and antibiotics in DMEM in Petri plates. These cultures were maintained under carefully controlled conditions—37 °C and 5% CO2 within a humidified incubator. The selection of cells for recordings was based on fluorescence intensity. Highly GFP-positive cells were identified and isolated for further analysis, ensuring precise targeting of transfected populations.
(§2) Whole-cell patch clamp recordings were performed on HEK293t cells 36–48 h after transfection. Experiments were conducted at 22 °C, maintaining a holding potential of −60 mV, using an Integrated Patch Amplifier (IPA) from Sutter Instruments (Novato, CA, USA). Data acquisition was managed with SutterPatch Software v. 1.1.1 (Sutter Instruments), employing a sampling rate of 10 kHz and setting the low-pass filter at 2 kHz. […] The external solution contained 150 mM NaCl, 2.8 mM KCl, 0.5 mM MgCl2, 2 mM CaCl2, and 10 mM HEPES, adjusted to a pH of 7.4 using NaOH. The internal pipette solution was composed of 110 mM CsF, 30 mM CsCl, 4 mM NaCl, 0.5 mM CaCl2, 10 mM trypsin-EDTA solution B (0.25%), 0.05% EDTA, and 10 mM HEPES, with the pH adjusted to 7.2 using CsOH.
(§3) A dual-barrel glass pipette (theta tube) was employed for the rapid delivery of glutamate and other solutions. The theta tube was attached to a high-speed piezoelectric solution exchange system (Automate Scientific, Berkeley, CA, USA). To assess the efficiency of solution exchange, open-tip potentials were measured by applying solutions with different ionic compositions after the patch was expelled from the pipette. The time required for a 10–90% change in the solution was generally less than […].
(§4) Data analysis was performed with Igor Pro8.04 software (Wave Metrics, Inc., Portland, OR, USA). AMPA receptor deactivation and desensitization kinetics were measured by applying 10 mM glutamate for 1 ms and 500 ms, respectively. The currents from the AMPA receptor were fitted to a double-exponential model to quantify deactivation and desensitization time constants measured from the double-exponential fits. The weighted tau (τw) is calculated as: τw = (τf × af) + (τs × as), where τf and τs are the time constants of fast and slow exponential components and af and as represent their relative amplitudes.
(§5) Data are presented as the mean ± standard deviation (SD). The total number of HEK293 cells engaged was n = 10. The experimental groups were compared to the wild type using a one-way analysis of variance (ANOVA). Statistical significance was assessed using p values: p < 0.05 (*) indicated significance, p < 0.01 (**) indicated high significance, and p < 0.001 (***) indicated very high significance. The value “ns” indicates non-significance. Concentration–response relationships were modeled using the Hill equation with the resulting combined plots via GraphPad Prism software (version 6.01, GraphPad Software). The data presented are the means from 3–4 experimental replicates. […]

GluA2/3 = biological target: T2, GluA2/3 (UniProt P19491+P42263); experiment: Whole-cell patch clamp recordings of heteromeric GluA2/3 AMPA receptor currents and kinetics in transfected HEK293t cells; assay type: cell-based; settings: for Amplitude (peak whole-cell current in presence of compound): 16 µM compound co-applied with agonist, HEK293t, −60 mV, pH 7.4, 22 °C; for Amplitude (peak whole-cell current in presence of compound) / A/AI (amplitude ratio, glutamate alone / with compound) / t deact (weighted deactivation time constant) / t des (weighted desensitization time constant) / Amplitude, applying glutamate alone after compound: mean ± SD; for Amplitude (peak whole-cell current in presence of compound) / A/AI (amplitude ratio, glutamate alone / with compound) / Amplitude, applying glutamate alone after compound: n = 10; for A/AI (amplitude ratio, glutamate alone / with compound): 16 µM compound; for t deact (weighted deactivation time constant): 10 mM glutamate for 1 ms; for t deact (weighted deactivation time constant) / t des (weighted desensitization time constant): with compound; for t des (weighted desensitization time constant): 10 mM glutamate for 500 ms; for Amplitude, applying glutamate alone after compound: glutamate alone after the compound; for Effect on deactivation kinetics (τdeac), in words / Effect on desensitization kinetics (τdes), in words: versus glutamate alone, one-way ANOVA
T2 construct: expressed in transfected cells; host or cells: HEK293T (HEK293) cells, transient co-transfection
Excerpt: as §1, §2, §3, §4, §5

[1] = concentration–response fit, read-out: Log IC50 (converted)
[2] = inhibition of whole-cell peak current, concentration–response, Hill fit, read-out: IC50

T2 sequence (P19491 22-883 isoform P19491-2 limits assumed): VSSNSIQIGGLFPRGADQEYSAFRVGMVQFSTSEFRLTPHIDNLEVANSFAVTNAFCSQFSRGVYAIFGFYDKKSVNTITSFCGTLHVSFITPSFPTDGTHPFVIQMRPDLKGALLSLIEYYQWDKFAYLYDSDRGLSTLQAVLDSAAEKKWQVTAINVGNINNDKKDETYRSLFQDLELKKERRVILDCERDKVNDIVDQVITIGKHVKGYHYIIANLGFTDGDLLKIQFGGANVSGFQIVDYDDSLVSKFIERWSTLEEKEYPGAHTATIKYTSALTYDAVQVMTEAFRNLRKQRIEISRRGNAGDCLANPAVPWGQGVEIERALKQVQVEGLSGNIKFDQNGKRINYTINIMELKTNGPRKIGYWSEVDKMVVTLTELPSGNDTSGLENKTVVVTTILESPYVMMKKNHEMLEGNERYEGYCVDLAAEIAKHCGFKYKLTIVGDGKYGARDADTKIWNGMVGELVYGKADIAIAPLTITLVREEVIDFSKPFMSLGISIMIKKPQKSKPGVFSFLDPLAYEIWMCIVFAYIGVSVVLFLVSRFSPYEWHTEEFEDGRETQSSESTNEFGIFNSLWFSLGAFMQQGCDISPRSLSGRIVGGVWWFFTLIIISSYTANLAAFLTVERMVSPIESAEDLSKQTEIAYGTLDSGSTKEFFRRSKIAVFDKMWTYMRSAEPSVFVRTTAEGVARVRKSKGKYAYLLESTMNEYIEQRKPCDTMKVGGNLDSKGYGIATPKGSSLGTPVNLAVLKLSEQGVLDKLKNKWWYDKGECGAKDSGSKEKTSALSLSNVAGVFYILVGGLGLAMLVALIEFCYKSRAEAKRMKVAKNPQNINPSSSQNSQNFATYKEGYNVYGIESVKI
T2 sequence (P42263 29-894 isoform P42263-2 limits assumed): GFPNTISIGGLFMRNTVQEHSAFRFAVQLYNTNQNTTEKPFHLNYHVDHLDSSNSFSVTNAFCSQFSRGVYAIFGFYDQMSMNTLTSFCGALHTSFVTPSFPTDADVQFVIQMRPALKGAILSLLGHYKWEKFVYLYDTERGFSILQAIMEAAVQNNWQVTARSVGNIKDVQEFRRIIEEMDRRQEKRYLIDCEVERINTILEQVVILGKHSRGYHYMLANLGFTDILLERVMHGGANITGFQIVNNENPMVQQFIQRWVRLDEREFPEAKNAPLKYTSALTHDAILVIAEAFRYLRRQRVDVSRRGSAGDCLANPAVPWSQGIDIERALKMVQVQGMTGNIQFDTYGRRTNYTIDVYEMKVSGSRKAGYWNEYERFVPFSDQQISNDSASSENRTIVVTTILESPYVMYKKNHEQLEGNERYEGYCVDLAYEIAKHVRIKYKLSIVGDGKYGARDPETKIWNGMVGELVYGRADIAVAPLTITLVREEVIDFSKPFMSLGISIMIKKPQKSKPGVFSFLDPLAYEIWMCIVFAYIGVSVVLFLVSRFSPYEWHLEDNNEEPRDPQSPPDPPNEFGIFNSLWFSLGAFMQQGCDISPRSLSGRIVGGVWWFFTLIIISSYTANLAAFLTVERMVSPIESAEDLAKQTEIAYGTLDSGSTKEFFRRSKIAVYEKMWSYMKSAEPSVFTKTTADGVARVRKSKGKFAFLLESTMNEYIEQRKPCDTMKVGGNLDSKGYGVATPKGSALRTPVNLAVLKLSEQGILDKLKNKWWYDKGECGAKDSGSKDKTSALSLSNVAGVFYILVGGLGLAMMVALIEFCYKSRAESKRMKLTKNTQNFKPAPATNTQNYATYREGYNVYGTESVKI
T1 sequence (P19491 22-883 isoform P19491-2 limits assumed): as the sequence (P19491 22-883 isoform P19491-2 limits assumed) above

SMILES	Amplitude (peak whole-cell current in presence of compound) (GluA2) [pA]	A/AI (amplitude ratio, glutamate alone / with compound) (GluA2)	t deact (weighted deactivation time constant) (GluA2) [ms]	t des (weighted desensitization time constant) (GluA2) [ms]	IC50 (GluA2; [1]) [µM]	Amplitude, applying glutamate alone after compound (GluA2) [pA]	IC50 (GluA2; [2]) [µM]	Effect on deactivation kinetics (τdeac), in words (GluA2)	Effect on desensitization kinetics (τdes), in words (GluA2)	Amplitude (peak whole-cell current in presence of compound) (GluA2/3) [pA]	A/AI (amplitude ratio, glutamate alone / with compound) (GluA2/3)	t deact (weighted deactivation time constant) (GluA2/3) [ms]	t des (weighted desensitization time constant) (GluA2/3) [ms]	IC50 (GluA2/3; [1]) [µM]	Amplitude, applying glutamate alone after compound (GluA2/3) [pA]	IC50 (GluA2/3; [2]) [µM]	Effect on deactivation kinetics (τdeac), in words (GluA2/3)	Effect on desensitization kinetics (τdes), in words (GluA2/3)
COc1cc(NC(=O)c2c(-c3c(Cl)cccc3Cl)noc2C)cc(OC)c1 [CIC-3, 3-(2,6-dichlorophenyl)-N-(3,5-dimethoxyphenyl)-5-methylisoxazole-4-carboxamide]	223±15	5.60±0.27	6.3 ± 0.3	0.9 ± 0.1	4.79	1216±119	4.82	statistically significant prolongation of τdeac	significantly accelerated desensitization	101±10	5.50±0.26	6.2 ± 0.3	0.9 ± 0.1	4.9	542±66	4.92	statistically significant prolongation of τdeac	significantly accelerated desensitization
COc1cc(NC(=O)c2c(-c3c(Cl)cccc3Cl)noc2C)cc(OC)c1OC [CIC-4, 3-(2,6-dichlorophenyl)-5-methyl-N-(3,4,5-trimethoxyphenyl)isoxazole-4-carboxamide]	250±22	5.0±0.23	5.6 ± 0.3	1.1 ± 0.1	5.25	1220±157	5.26	statistically significant prolongation of τdeac	accelerated desensitization, although to a lesser degree	110±16	4.97±0.23	5.7 ± 0.3	1.1 ± 0.1	5.37	531±89	5.4	statistically significant prolongation of τdeac	accelerated desensitization, although to a lesser degree
COc1ccc(NC(=O)c2c(-c3c(Cl)cccc3Cl)noc2C)c(OC)c1 [CIC-5, 3-(2,6-dichlorophenyl)-N-(2,4-dimethoxyphenyl)-5-methylisoxazole-4-carboxamide]	228±15	5.42±0.07	6.1 ± 0.3	1.0 ± 0.1	5.01	1198±99	5.03	statistically significant prolongation of τdeac	accelerated desensitization, although to a lesser degree	105±7	5.37±016	6.2 ± 0.3	1.0 ± 0.1	5.13	548±40	5.14	statistically significant prolongation of τdeac	accelerated desensitization, although to a lesser degree
COc1ccc(NC(=O)c2c(-c3c(Cl)cccc3Cl)noc2C)cc1OC [CIC-6, 3-(2,6-dichlorophenyl)-N-(3,4-dimethoxyphenyl)-5-methylisoxazole-4-carboxamide]	256±19	4.84±0.23	5.4 ± 0.2	1.5 ± 0.1	5.75	1202±120	5.74	statistically significant prolongation of τdeac	accelerated desensitization, although to a lesser degree	116±10	4.76±0.14	5.3 ± 0.3	1.6 ± 0.1	5.75	534±56	5.76	statistically significant prolongation of τdeac	accelerated desensitization, although to a lesser degree
COc1ccccc1Oc1ccc(NC(=O)c2c(-c3c(Cl)cccc3Cl)noc2C)cc1 [CIC-7, 3-(2,6-dichlorophenyl)-N-(4-(2-methoxyphenoxy)phenyl)-5-methylisoxazole-4-carboxamide]	280±13	4.53±0.21	5.1 ± 0.2	1.7 ± 0.1	6.03	1231±106	6.03	statistically significant prolongation of τdeac	accelerated desensitization, although to a lesser degree	120±15	4.49±0.21	5.2 ± 0.2	1.8 ± 0.1	6.17	524±76	6.14	statistically significant prolongation of τdeac	accelerated desensitization, although to a lesser degree
